Experimental data: PMC10547674, “Bioactive metabolites identified from Aspergillus terreus derived from soil” (AMB Express, 2023)
In brackets after ≈: the same amount, converted by molar mass. Like-named read-outs stand apart in the source and are kept apart here.

How the values were obtained:
TNF-α [1] = test: RT-PCR, TNF-α mRNA expression in LPS-stimulated RAW 264.7 cells; type: cell-based, Murine; conditions: LPS-induced RAW 264.7, compared to LPS control
Method: (§1) RAW 264.7 cells (1.8 × 10^5 cells/mL) were seeded for 18 h in a 24-well plate having DMEM medium (1 mL). […] Then, LPS (Sigma-Aldrich Cat No: L2630) (500 ng/mL, LPS control) was added to all treated and untreated wells to induce the inflammatory process. After incubation for 24 h, the media were taken and frozen till analysis. The untreated wells represented the LPS control group.
(§2) RAW 264.7 cells were washed two times and then harvested in PBS (1 mL). Total RNA from the stimulated RAW 264.7 cells was extracted utilizing Qiagen RNA extraction (Qiagen, MD, USA) following the instructions of the procedure. cDNA was synthesized by iScript cDNA synthesis kit (Bio-Rad Laboratories Pty. Ltd, Gladesville, Australia). Rotorgene RT-PCR system (QIAGEN, Germany) was used for PCR amplification using BioRad cyber green PCR MMX (Bio-Rad Laboratories Pty. Ltd, Gladesville, Australia). The primers used for the amplification of IL-6, TNF-α, and β-actin genes are represented in Additional file 1: Table S4.
(§3) The Formula 2^−(ΔΔCt) was used to calculate the relative fold change between samples and control.

IL-6 [2] = test: LPS-induced inflammatory model, IL-6 level by ELISA; type: cell-based, Murine; conditions: LPS (500 ng/mL)-induced RAW 264.7, sample at ¼ IC50, ELISA of medium; LPS control 227.50 ± 29.2
Method: (§4) Murine macrophage cells (RAW 264.7), supplied by American Type Culture Collection (ATCC), were grown on Dulbecco′s Modified Eagle Medium (DMEM), accompanied with 10%, […] and 100 μg/mL from bovine serum, penicillin, and streptomycin respectively. After that, cells were incubated in a CO2 atmosphere (5%, 37 °C) then they sub-cultured every 2 days and the cells of the exponential phase were used all over the procedure.
as §1
(§5) TNF- α quantitative assay ELISA kit (Abcam, ab181421 Human TNF alpha Simple Step) and Il-6 quantitative assay ELISA kit (Abcam, Ab178013 Human IL-6 Simple Step) were used to quantify IL-6 and TNF- α levels in the cell culture medium following the manufacturer′s instructions (Afshari et al. [2005]).

[3] = molecular target: ACE2/Spike (RBD) protein interaction (Homo sapiens, UniProt Q9BYF1); test: ACE2: SARS-CoV-2 spike inhibitor screening colorimetric assay; type: binding
[4] = test system: Aspergillus niger NRRL-A326; test: Agar disc diffusion; conditions: for zone of inhibition at 10 µg/disc: Aspergillus niger, NRRLA326; for Zone of inhibition: A. niger, disc loaded with about 0.01mg
Method: (§8) Staphylococcus aureus ATCC 6538, Escherichia coli ATCC 25922, Candida albicans ATCC 10231and Aspergillus niger NRRL-A326 were supplied from Culture Collection Center. The antimicrobial activity of A. terreus extract and 1–4 was investigated by the agar disc diffusion method (Abdel-Wareth et al. [2019]). Nutrient agar (bacteria and yeast) and PDA (fungi) plates were seeded with 0.1 mL of 10^5–10^6 cells/mL then the filter paper discs (0.5 cm) were loaded with about 0.01mg from the extract and compounds, and put on the inoculated agar or PDA plates surface and stayed for 2–4 h at 4°C to reach maximum diffusion. After that, incubation of the plate at 30°C for 24 and 48 h for bacteria and fungi, respectively, to permit maximum growth then the inhibition zone diameter was measured in millimeters (mm). Experiments were carried out in triplicate.

MTT cell viability = type: cell-based, Murine; conditions: mouse, RAW 264.7 cells
Method: as §4
(§6) In vitro cytotoxicity assay kit MTT-based was purchased from Sigma- Aldrich, MTT cat No: M-5655, MTT solubilization solution: M-8910). RAW 264.7 cells (10,000/well) were plated in a 96-well plate then the test compounds (1–4) and the extract were diluted by a serial dilution technique (1000–4 μg/mL) were introduced and the plate was placed in a CO2 incubator (37 °C for 24 h). The cells were washed by DMEM and incubated with MTT solution (40 μL, 4 h). DMSO (180 μL) was used to solubilize the crystals of formazan and the produced color was measured at λ570 nm. The results were normalized against the control and the cell viability percentage was estimated as follows: %Cell viability=(Absorbance of sample/Absorbance of control)x100.

[5] = test system: Staphylococcus aureus ATCC 6538; test: Agar disc diffusion; conditions: disc loaded with about 0.01mg; for zone of inhibition at 10 µg/disc: Staphylococcus aureus, ATCC6538, S. aureus; for Zone of inhibition: S. aureus
Method: as §8

[6] = test system: Candida albicans ATCC 10231; test: Agar disc diffusion; conditions: disc loaded with about 0.01mg; for zone of inhibition at 10 µg/disc: Candida albicans, ATCC10231, C. albicans; for Zone of inhibition: C. albicans
Method: as §8

[7] = test system: Escherichia coli ATCC 25922; test: Agar disc diffusion; conditions: for zone of inhibition at 10 µg/disc: Escherichia coli, ATCC25922; for Zone of inhibition: E. coli, disc loaded with about 0.01mg
Method: as §8

TNF-α [8] = test: LPS-induced inflammatory model, TNF-α level by ELISA; type: cell-based, Murine; conditions: LPS (500 ng/mL)-induced RAW 264.7, sample at ¼ IC50, ELISA of medium; LPS control 452.5 0 ± 46.1
Method: as §4, §1, §5

C. albicans = test: MIC and MBC, resazurin microplate dilution; type: cell-based, Candida albicans
Method: (§7) The tested strains were cultivated in 100 mL bottles at 35 °C for 24 h on Mueller Hinton medium (Sigma-Aldrich, Germany). Bacteria and fungi cells (pellet) were collected by centrifugation at 5000 rpm, 4 °C, and under aseptic conditions, then washed with sterile saline till the supernatant became clear. […] Duplicate plates were prepared and incubated (37 °C, 18-24 h). The lowest concentration at which the color is changed is the MIC data, while MBC has been calculated by streaking two concentrations higher than MIC showing no growth ([…] et al. [2007]).

RAW 264.7 cells = test: MTT cell viability; type: cell-based, Murine; conditions: 24 h
Method: as §4, §6

S. aureus = test: MIC and MBC, resazurin microplate dilution; type: cell-based, Staphylococcus aureus
Method: as §7

IL-6 [9] = test: RT-PCR, IL-6 mRNA expression in LPS-stimulated RAW 264.7 cells; type: cell-based, Murine; conditions: LPS-induced RAW 264.7, compared to LPS control
Method: as §1, §2, §3

[10] = RAW 264.7 macrophage cells, read-out: IC50 mean ± SD (cytotoxic effect)
[11] = RAW 264.7 macrophage cells, value given in µM, read-out: IC50 (cytotoxic effect) (converted)
[12] = read-out: IC50 mean ± SD (cytotoxic effect)
[13] = value given in µM, read-out: IC50 (cytotoxic effect) (converted)

Chain of ACE2/Spike (RBD) protein interaction (Q9BYF1 18-740): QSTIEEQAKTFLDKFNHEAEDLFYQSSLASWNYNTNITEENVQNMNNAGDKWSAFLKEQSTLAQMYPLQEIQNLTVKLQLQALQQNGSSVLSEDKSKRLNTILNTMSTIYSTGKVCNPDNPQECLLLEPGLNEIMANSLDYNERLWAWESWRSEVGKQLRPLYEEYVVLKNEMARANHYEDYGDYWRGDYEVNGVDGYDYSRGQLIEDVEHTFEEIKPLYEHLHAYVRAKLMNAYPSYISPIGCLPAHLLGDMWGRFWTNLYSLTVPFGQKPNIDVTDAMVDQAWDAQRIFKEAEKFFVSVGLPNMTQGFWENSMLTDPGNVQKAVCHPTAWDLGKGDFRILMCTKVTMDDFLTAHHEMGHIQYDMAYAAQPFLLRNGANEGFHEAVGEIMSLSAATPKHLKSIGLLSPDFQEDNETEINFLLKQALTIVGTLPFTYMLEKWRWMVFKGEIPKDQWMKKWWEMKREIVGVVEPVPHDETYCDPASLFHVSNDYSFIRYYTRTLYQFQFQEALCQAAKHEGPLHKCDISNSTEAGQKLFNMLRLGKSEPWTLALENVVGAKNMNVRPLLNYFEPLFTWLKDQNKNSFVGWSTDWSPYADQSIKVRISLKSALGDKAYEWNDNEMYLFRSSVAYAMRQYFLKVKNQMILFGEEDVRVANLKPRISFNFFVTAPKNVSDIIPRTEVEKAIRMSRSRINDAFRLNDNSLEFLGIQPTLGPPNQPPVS

Compound | IL-6, mean ± SD (IL-6 [2]) [pg/mL] | IC50 ([3]; tested 5–50 µg/mL, triplicates) [µM] | IC50 ([3]; value given in µM) [µM] | zone of inhibition at 10 µg/disc [4] [mm] | IC50 at 24 h (MTT cell viability; [10]) [µg/mL] | IC50 at 24 h (MTT cell viability; [11]) [µM] | zone of inhibition at 10 µg/disc [5] [mm] | zone of inhibition at 10 µg/disc [6] [mm] | zone of inhibition at 10 µg/disc [7] [mm] | TNF-α mean ± SD (TNF-α [8]) [pg/mL] | IC50 mean ± SD (cytotoxic effect) (RAW 264.7 cells) [µg/mL] | IC50 at 24 h (MTT cell viability; [12]) [µg/mL] | IC50 at 24 h (MTT cell viability; [13]) [µM] | Zone of inhibition [5] [mm] | Zone of inhibition [6] [mm] | Zone of inhibition [4] [mm] | Zone of inhibition [7] [mm] | further results
CCC/C=C\C/C=C\CCCCC(=O)OCC(COC(=O)CCCC/C=C\C/C=C\CCC)OC(=O)CCCC/C=C\CCCCC [Compound 1, 1,3-di-(6Z,9Z)-trideca-6,9-dienoyl-2-(6Z) dodec-6-enoyl glycerol] | 51.63 ± 2.79 | 16 | 15.8 | 0 | 858 | 1290 | 0 | 0 | 0 | 68.220 ± 3.09 |  |  |  |  |  |  |  | expression of TNF-α mRNA (TNF-α [1]): most activity
COC(=O)[C@]1(Cc2ccc(O)c(CC=C(C)C)c2)OC(=O)C(O)=C1c1ccc(O)cc1 [Compound 2, butyrolactone I] | 37.25 ± 0.87 | 29.4 | 29.5 | 0 |  |  | 19 to 25 | 11 to 22 | 0 | 87.97 ± 6.7 | 718.7 ± 40.4 (≈ 1690 µM) | 718 | 1690 | 19 | 11 |  |  | MBC (C. albicans; Candida albicans): 250 µg/mL (≈ 589 µM); MIC (C. albicans; Candida albicans): 250 µg/mL (≈ 589 µM); MBC (S. aureus; Staphylococcus aureus): 250 µg/mL (≈ 589 µM); MIC (S. aureus; Staphylococcus aureus): 250 µg/mL (≈ 589 µM); expression of IL-6 mRNA (IL-6 [9]): best inhibitory activity
COC(=O)[C@]1(Cc2ccc(O)c(CC3OC3(C)C)c2)OC(=O)C(O)=C1c1ccc(O)cc1 (stereo partly shown) [Compound 3, butyrolactone III] |  | 21.6 | 21.6 | 0 |  |  | 0 | 0 | 0 |  | 246.8 ± 13.9 (≈ 560 µM) | 246 | 561 |  |  |  |  | 
CSC(O)(N1C(=O)CNC(=O)C1Cc1c[nH]c2ccccc12)N1C(=O)CC(=O)N2C(=O)c3cc(O)ccc3CC21 (stereo not shown) [Compound 4, asterrine] | 129.00 ± 1.77 | 15.1 | 15.1 | 0 | 449 ± 25.2 | 797 | 19 to 25 | 11 to 22 | 0 | 268.30 ± 3.43 |  |  |  | 25 | 15 |  |  | MIC (C. albicans; C. albicans): 250 µg/mL (≈ 444 µM); MBC (C. albicans; Candida albicans, C. albicans, read-out: MBC): 500 µg/mL (≈ 887 µM); MIC (C. albicans; Candida albicans, C. albicans, read-out: MIC): 250 µg/mL (≈ 444 µM); MBC (S. aureus; S. aureus): 250 µg/mL (≈ 444 µM); MBC (S. aureus; Staphylococcus aureus, S. aureus, read-out: MBC): 250 µg/mL (≈ 444 µM); MIC (S. aureus; Staphylococcus aureus, S. aureus, read-out: MIC): 125 µg/mL (≈ 222 µM)
C[C@@H]1C[C@@H]([C@H](O)CC2CC(=O)NC(=O)C2)C(=O)[C@@H](C)C1 [Cyclohexamide, reference compound] |  |  |  |  |  |  |  |  |  |  |  |  |  | 0 | 0 | 29 | 0 | 
Neomycin [reference compound] |  |  |  |  |  |  |  |  |  |  |  |  |  | 21 | 23 | 0 | 8 | 
